The values that follow come from ChEMBL document CHEMBL5696441 (Nat Chem Biol, 2011).

Assay [1] addresses BDNF/NT-3 growth factors receptor (Homo sapiens) (UniProt Q16620). Put plainly: Inhibition of TRKB (unknown origin) assessed as remaining activity at 1 uM by Kinome scan method relative to control.
Assay [2] addresses T1, Aurora kinase A (Homo sapiens) (UniProt O14965).
T1 sequence (whole entry): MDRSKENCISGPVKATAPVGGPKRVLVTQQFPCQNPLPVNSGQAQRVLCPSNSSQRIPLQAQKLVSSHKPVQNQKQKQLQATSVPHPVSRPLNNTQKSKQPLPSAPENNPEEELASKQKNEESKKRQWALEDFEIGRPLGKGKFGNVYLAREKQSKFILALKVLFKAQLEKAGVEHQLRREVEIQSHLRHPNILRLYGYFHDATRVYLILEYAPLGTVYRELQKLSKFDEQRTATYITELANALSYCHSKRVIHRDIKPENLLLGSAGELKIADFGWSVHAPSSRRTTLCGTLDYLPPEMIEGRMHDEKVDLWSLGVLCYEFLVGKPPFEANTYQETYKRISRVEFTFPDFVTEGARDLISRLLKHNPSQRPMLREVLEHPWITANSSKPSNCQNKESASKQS
Kind of assay: Inhibition of AURKA (unknown origin) assessed as remaining activity at 1 uM by Kinome scan method relative to control.

Assay [3] has as its target Epithelial discoidin domain-containing receptor 1 (Homo sapiens) (UniProt Q08345). Put plainly: Inhibition of DDR1 (unknown origin) assessed as remaining activity at 1 uM by Kinome scan method relative to control.
The target in assay [4] is Phosphatidylinositol 4-kinase beta (Homo sapiens) (UniProt Q9UBF8). Kind of assay: Inhibition of PIK4CB (unknown origin) assessed as remaining activity at 1 uM by Kinome scan method relative to control.
Phosphatidylinositol 4-kinase beta (Homo sapiens), sequence (Q9UBF8 2-816 limits assumed): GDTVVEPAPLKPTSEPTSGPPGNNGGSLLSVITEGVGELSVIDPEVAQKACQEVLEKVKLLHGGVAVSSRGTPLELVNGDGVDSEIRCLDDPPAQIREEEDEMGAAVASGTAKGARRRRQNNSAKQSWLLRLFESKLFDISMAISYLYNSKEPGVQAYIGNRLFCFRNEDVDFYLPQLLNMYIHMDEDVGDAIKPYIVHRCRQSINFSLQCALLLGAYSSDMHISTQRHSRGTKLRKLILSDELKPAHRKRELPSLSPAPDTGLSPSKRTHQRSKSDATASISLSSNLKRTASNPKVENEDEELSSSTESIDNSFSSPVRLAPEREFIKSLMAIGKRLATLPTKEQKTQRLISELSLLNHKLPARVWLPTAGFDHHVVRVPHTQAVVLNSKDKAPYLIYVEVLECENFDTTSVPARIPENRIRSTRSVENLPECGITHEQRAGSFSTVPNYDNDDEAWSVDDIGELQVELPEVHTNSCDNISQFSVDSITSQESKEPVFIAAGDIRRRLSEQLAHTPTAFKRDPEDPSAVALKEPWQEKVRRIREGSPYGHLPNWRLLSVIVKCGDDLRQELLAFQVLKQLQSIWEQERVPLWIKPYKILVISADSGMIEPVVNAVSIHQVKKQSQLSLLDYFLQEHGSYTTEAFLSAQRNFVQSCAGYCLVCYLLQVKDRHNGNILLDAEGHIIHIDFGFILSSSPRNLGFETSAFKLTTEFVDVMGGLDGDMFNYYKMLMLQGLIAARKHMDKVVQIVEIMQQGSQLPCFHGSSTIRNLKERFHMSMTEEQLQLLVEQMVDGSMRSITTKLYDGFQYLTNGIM
The target in assay [5] is Protein-tyrosine kinase 6 (Homo sapiens) (UniProt Q13882). Put plainly: Inhibition of BRK (unknown origin) assessed as remaining activity at 1 uM by Kinome scan method relative to control.
Protein-tyrosine kinase 6 (Homo sapiens), sequence (Q13882 whole entry, looked up): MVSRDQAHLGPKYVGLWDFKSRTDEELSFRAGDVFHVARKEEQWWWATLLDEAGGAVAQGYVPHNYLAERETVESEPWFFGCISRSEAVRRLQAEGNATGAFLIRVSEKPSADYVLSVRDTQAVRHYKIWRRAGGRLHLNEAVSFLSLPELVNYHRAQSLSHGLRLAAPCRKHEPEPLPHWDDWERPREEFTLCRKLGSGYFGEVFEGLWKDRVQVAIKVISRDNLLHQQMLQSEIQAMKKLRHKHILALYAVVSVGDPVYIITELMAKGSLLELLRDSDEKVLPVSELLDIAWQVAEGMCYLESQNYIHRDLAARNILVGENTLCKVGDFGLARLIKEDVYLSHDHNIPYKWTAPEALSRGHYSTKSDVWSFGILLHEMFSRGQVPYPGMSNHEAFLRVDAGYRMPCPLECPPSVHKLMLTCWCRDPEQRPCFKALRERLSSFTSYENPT
Assay [6] deals with Serine/threonine-protein kinase pim-2 (Homo sapiens) (UniProt Q9P1W9). Put plainly: Inhibition of PIM2 (unknown origin) assessed as remaining activity at 1 uM by Kinome scan method relative to control.
Serine/threonine-protein kinase pim-2 (Homo sapiens), sequence (Q9P1W9 whole entry, looked up): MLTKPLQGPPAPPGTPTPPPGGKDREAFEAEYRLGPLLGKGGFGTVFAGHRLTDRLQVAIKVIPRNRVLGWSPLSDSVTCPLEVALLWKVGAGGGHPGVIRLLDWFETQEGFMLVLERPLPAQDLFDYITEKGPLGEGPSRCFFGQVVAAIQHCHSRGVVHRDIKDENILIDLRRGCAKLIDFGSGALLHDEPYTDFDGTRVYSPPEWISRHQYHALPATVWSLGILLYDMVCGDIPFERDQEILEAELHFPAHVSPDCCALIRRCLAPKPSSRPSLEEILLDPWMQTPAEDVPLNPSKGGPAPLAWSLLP
For assay [7], the target named is Serine/threonine-protein kinase MARK2 (Homo sapiens) (UniProt Q7KZI7). Put plainly: Inhibition of MARK2 (unknown origin) assessed as remaining activity at 1 uM by Kinome scan method relative to control.
Serine/threonine-protein kinase MARK2 (Homo sapiens), sequence (Q7KZI7 whole entry): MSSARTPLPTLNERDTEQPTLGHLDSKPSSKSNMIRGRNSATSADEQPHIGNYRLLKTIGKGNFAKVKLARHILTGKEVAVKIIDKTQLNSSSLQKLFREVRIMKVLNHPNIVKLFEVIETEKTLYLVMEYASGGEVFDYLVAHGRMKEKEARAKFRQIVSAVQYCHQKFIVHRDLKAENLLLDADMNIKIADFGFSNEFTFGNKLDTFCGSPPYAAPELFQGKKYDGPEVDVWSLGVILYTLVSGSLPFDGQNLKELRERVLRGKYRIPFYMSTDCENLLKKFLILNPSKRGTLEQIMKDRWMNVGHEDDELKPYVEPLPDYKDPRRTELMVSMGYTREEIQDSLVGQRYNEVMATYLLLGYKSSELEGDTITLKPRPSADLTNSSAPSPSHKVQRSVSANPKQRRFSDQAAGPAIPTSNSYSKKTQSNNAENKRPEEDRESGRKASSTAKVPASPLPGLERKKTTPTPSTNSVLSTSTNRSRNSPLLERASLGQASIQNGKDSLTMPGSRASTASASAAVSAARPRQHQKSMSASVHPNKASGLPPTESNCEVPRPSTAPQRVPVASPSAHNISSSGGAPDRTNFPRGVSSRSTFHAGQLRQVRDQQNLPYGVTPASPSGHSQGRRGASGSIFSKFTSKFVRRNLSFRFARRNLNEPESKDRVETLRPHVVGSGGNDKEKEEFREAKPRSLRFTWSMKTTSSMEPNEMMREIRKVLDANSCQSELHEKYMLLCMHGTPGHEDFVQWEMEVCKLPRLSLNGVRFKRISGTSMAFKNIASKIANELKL
For assay [8], the system named is Mast/stem cell growth factor receptor Kit (Homo sapiens), P10721 [D816V]. Kind of assay: Inhibition of KIT D816V mutant (unknown origin) assessed as remaining activity at 1 uM by Kinome scan method relative to control.
Mast/stem cell growth factor receptor Kit (Homo sapiens), P10721 [D816V], sequence (P10721 whole entry D816V): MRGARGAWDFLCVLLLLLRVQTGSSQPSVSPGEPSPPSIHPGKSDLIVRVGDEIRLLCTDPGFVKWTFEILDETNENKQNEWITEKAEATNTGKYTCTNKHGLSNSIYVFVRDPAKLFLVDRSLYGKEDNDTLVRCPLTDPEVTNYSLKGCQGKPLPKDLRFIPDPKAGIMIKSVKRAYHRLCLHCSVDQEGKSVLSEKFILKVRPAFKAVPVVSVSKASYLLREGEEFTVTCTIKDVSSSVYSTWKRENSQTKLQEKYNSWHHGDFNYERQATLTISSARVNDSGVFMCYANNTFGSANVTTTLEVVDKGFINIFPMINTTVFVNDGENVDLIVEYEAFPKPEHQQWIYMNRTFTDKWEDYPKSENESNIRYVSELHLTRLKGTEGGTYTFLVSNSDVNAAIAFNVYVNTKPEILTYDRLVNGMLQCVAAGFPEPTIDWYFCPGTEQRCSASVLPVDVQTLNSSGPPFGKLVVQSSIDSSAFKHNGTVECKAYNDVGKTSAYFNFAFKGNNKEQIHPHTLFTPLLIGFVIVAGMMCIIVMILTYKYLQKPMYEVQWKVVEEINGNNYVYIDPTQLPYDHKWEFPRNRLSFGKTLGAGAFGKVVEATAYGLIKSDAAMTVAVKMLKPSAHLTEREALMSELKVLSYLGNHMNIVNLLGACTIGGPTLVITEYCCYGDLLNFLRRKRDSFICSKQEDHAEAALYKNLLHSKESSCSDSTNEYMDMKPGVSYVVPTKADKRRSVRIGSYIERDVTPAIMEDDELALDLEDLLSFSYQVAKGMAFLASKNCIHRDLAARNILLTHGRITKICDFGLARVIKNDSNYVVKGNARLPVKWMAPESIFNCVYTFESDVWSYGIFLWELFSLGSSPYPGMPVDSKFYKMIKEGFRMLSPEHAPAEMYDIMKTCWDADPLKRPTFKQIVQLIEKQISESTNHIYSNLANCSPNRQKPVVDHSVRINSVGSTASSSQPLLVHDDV
In assay [9] the target is T2, Tyrosine-protein kinase Tec (Homo sapiens) (UniProt P42680).
T2 sequence (whole entry): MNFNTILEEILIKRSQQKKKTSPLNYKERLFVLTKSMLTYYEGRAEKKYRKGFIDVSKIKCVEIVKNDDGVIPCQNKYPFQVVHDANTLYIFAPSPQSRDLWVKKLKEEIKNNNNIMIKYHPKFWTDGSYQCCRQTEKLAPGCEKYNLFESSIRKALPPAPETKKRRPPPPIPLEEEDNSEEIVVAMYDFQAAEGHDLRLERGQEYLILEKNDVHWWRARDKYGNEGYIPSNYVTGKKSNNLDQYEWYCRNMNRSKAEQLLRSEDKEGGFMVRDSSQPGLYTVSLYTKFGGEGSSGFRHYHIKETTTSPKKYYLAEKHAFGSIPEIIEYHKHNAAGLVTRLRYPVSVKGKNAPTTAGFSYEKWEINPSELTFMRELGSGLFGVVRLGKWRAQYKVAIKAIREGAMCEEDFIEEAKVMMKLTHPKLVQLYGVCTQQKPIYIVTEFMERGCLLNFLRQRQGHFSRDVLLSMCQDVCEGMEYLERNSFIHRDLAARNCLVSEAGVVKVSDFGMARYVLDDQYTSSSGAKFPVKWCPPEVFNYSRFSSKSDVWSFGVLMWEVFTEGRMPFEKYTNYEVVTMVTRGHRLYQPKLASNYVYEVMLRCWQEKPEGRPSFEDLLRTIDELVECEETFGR
Put plainly: Inhibition of TEC (unknown origin) assessed as remaining activity at 1 uM by Kinome scan method relative to control.

The target of assay [10] is T3, Serine/threonine-protein kinase Nek1 (Homo sapiens) (UniProt Q96PY6).
T3 sequence (whole entry): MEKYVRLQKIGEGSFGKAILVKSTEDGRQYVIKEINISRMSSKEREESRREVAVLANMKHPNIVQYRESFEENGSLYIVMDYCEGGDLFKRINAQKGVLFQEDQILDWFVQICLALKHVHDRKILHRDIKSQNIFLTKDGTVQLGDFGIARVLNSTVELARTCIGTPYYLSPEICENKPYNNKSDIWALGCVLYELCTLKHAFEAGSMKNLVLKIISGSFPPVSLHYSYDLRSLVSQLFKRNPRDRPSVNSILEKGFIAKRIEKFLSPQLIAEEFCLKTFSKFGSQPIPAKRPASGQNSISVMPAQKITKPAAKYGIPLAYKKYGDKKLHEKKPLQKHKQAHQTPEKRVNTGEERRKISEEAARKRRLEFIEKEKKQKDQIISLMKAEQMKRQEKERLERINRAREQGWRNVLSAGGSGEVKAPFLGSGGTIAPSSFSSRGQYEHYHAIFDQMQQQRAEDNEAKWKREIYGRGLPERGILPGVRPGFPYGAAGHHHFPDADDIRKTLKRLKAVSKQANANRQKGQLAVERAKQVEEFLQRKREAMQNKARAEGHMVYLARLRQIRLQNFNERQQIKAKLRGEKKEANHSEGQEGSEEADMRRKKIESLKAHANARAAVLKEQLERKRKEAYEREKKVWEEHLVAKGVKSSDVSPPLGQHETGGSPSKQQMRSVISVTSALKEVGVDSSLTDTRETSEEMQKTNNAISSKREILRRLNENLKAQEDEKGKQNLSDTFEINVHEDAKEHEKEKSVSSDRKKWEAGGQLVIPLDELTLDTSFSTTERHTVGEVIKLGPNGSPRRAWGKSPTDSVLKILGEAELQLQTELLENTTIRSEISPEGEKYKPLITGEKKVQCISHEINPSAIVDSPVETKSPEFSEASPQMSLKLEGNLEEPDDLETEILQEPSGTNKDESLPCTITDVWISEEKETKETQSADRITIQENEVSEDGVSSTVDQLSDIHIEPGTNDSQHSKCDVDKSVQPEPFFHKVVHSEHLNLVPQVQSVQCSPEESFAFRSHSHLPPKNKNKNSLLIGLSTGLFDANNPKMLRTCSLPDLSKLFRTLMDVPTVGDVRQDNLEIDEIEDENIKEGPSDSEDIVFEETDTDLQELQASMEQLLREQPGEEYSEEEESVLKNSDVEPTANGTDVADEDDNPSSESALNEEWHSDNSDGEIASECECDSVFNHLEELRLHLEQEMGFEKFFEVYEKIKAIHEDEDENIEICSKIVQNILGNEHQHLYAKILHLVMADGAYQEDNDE
Put plainly: Inhibition of NEK1 (unknown origin) assessed as remaining activity at 1 uM by Kinome scan method relative to control.

BDNF/NT-3 growth factors receptor (Homo sapiens), sequence (Q16620 32-822 limits assumed): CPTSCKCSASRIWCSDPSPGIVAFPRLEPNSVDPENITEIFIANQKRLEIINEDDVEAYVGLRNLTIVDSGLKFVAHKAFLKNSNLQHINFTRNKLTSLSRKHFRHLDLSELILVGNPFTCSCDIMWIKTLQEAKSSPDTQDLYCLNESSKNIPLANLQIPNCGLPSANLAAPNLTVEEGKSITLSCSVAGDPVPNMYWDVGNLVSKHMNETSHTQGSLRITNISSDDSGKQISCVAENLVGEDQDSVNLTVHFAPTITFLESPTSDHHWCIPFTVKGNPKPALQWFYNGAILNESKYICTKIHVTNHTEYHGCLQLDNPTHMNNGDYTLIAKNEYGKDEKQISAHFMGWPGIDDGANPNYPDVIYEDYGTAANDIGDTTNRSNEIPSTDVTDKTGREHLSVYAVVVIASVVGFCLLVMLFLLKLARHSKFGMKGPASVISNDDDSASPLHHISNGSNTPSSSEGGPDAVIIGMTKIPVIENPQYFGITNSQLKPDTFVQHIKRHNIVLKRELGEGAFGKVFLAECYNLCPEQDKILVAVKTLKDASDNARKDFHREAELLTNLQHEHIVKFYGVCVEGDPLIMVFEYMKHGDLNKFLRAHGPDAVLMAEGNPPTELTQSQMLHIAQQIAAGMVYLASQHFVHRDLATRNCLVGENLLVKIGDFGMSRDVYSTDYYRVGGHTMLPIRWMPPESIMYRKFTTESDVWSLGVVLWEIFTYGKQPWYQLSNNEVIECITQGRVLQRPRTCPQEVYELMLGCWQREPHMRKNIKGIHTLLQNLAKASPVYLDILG
Epithelial discoidin domain-containing receptor 1 (Homo sapiens), sequence (Q08345 whole entry, the tested form may be a part): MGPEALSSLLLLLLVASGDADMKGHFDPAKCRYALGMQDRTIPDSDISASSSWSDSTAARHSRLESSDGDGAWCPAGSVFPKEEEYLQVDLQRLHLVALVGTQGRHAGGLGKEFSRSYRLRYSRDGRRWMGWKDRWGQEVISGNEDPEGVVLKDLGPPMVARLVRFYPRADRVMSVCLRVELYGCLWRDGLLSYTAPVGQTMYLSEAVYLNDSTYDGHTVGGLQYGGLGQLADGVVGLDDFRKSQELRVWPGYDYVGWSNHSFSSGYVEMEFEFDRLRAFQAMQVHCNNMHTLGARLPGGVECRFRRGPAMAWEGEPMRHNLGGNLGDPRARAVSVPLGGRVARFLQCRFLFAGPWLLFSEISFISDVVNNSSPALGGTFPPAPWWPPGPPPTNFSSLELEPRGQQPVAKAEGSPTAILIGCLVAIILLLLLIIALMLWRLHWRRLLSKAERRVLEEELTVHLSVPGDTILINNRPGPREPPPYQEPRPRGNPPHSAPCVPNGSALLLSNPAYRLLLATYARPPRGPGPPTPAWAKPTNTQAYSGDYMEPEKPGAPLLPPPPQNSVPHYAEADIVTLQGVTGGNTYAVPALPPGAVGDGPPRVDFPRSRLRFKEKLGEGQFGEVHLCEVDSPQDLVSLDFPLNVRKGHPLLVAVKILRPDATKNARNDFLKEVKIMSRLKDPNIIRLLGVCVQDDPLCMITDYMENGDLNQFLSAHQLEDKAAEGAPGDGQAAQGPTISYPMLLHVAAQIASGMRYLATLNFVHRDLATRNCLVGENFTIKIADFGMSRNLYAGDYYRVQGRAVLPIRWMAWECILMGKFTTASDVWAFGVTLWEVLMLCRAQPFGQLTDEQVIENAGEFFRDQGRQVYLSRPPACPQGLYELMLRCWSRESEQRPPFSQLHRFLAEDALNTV

With `Nc1ccccc1Nc1ccc2c(c1)CCc1ccccc1C2=O`, the Activity in [1] worked out at 85%; in assay [2], 93%; in assay [3] it was 80%; in assay [4] it was 91%; in [5], 97%; in assay [6], 98%. Besides, the Activity in assay [7] came to 72%; in assay [8], 85%; in assay [9], 98%; in assay [10], 90%.
As for `O=C1c2ccc(Nc3ccc(F)cc3F)cc2CCc2ccc(OC[C@H](O)CO)cc21` [Skepinone-L], the Activity in [1] was 100%; in assay [2], 100%; in [3], 85%; in assay [4] it was 95%; in assay [5] it was 98%; in assay [6] it was 100%. Moreover, the Activity in assay [7] came out at 97%; in assay [8], 89%; in [9], 99%; in assay [10] it was 91%.
